ChEMBL document CHEMBL1828557, “Biophysical and physicochemical methods differentiate highly ligand-efficient human D-amino acid oxidase inhibitors” (Eur J Med Chem, 2011)
Values after ≈ are worked out from the molar mass of the structure shown.

Legend:
[1] = Apparent permeability from apical to basolateral side of MDCK cells expressing MDR1 by LC-MS/MS analysis; type: ADME, cell-based, Canis lupus familiaris; conditions: dog
[2] = Ratio of drug level (0 to last) in brain to plasma in Wistar rat at 10 mg/kg, po; type: ADME, organism-based; parameters: dose 10 mg/kg, route oral; conditions: brain and plasma, read-out: BPR
[3] = Octanol-water partition coefficient, log P of the neutral compound by pH-metric method; type: physicochemical
[4] = Volume of distribution in Swiss mouse plasma at 1 mg/kg, iv; type: ADME, organism-based; parameters: dose 1 mg/kg, route intravenous
Brain [5] = test: AUC (0 to last) in Swiss mouse brain at 10 mg/kg, po; type: ADME, organism-based; parameters: time 0 - last, dose 10 mg/kg, route oral; conditions: in vivo
[6] = Kinetic solubility of the compound in 0.01 M phosphate buffered saline at pH 7.4 assessed as minimum solubility after 2 hrs; type: physicochemical; conditions: read-out: Kinetic_solubility
[7] = Plasma clearance in Wistar rat plasma at 1 mg/kg, iv; type: ADME, organism-based; parameters: dose 1 mg/kg, route intravenous
[8] = Tmax in Swiss mouse brain at 10 mg/kg, po; type: ADME, organism-based; parameters: dose 10 mg/kg, route oral
[9] = Plasma clearance in Swiss mouse plasma at 1 mg/kg, iv; type: ADME, organism-based; parameters: dose 1 mg/kg, route intravenous
[10] = target: Voltage-gated inwardly rectifying potassium channel KCNH2 (Homo sapiens, UniProt Q12809); test: Inhibition of human ERG expressed in HEK293 cells by whole cell voltage patch clamp technique; type: cell-based
Chain of Voltage-gated inwardly rectifying potassium channel KCNH2 (Q12809 whole entry): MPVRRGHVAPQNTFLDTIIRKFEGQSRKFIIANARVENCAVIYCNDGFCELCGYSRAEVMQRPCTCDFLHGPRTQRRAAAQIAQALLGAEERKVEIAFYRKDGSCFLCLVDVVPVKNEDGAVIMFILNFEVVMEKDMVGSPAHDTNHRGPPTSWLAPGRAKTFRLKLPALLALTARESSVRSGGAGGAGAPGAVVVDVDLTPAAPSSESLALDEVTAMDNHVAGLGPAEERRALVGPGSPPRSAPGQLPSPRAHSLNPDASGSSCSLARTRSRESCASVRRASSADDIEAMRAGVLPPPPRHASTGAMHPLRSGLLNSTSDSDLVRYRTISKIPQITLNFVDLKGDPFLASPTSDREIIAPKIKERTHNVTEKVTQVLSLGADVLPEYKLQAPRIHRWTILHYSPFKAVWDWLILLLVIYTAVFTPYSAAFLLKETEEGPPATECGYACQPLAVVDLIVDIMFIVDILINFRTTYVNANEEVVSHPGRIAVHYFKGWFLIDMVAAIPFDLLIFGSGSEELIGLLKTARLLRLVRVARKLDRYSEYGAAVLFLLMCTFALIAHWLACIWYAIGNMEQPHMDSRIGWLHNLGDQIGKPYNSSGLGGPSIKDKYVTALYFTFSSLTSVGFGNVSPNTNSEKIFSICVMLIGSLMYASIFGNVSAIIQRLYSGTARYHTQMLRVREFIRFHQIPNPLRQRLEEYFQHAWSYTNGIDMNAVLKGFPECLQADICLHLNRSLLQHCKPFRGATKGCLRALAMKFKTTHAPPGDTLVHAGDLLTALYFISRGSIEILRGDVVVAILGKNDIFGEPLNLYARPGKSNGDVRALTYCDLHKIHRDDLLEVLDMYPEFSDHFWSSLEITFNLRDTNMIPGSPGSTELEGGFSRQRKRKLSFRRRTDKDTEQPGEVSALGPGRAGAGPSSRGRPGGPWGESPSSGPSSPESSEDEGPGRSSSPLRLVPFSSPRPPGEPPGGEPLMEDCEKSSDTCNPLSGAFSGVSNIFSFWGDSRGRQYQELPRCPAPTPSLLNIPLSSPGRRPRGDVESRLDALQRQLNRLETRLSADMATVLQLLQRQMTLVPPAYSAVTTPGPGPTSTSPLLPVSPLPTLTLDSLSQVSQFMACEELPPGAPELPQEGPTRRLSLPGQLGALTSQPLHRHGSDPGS

[11] = Oral bioavailability (0 to last) in Swiss mouse plasma at 10 mg/kg; type: ADME, organism-based
[12] = Kinetic solubility of the compound in 0.01 M phosphate buffered saline at pH 7.4 assessed as maximum solubility after 2 hrs; type: physicochemical; conditions: read-out: Kinetic_solubility
[13] = Volume of distribution in Wistar rat plasma at 1 mg/kg, iv; type: ADME, organism-based; parameters: dose 1 mg/kg, route intravenous
[14] = Terminal half life in Wistar rat brain at 10 mg/kg, po; type: ADME, organism-based; parameters: dose 10 mg/kg, route oral; conditions: read-out: beta t1/2 (converted)
[15] = Thermodynamic solubility of the compound in phosphate buffer at pH 7.4 after 24 hrs by HPLC analysis; type: physicochemical; conditions: read-out: Therm_solubility
[16] = Intrinsic clearance in human liver microsomes; type: ADME, Microsome
D-amino-acid oxidase [17] = target: T1, D-amino-acid oxidase (Homo sapiens, UniProt P14920)
Target sequence in this assay (P14920 whole entry, looked up): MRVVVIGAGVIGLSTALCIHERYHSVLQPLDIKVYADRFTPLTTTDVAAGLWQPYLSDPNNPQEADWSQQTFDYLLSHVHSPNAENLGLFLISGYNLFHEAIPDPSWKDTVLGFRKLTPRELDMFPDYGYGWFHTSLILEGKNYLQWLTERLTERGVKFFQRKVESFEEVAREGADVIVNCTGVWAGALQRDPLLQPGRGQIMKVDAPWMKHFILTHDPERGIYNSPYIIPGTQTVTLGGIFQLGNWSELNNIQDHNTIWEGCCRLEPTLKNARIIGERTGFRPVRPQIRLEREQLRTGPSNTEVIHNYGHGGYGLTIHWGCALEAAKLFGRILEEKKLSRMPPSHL

[18] = Apparent permeability across apical to basolateral side in human Caco2 cells by LC-MS/MS analysis; type: ADME, cell-based; conditions: Caco-2
[19] = Tmax in Wistar rat brain at 10 mg/kg, po; type: ADME, organism-based; parameters: dose 10 mg/kg, route oral
[20] = Dissociation constant, pKa of the compound by dip probe absorption spectroscopy technique; type: physicochemical
[21] = Oral bioavailability (0 to last) in Wistar rat plasma at 10 mg/kg; type: ADME, organism-based
[22] = Cmax in Swiss mouse brain at 10 mg/kg, po; type: ADME, organism-based; parameters: dose 10 mg/kg, route oral
D-aspartate oxidase = target: T2, D-aspartate oxidase (Bos taurus, UniProt P31228); test: Inhibition of bovine recombinant DASPO expressed in Escherichia coli preincubated for 15 mins by fluorescence assay
T2 sequence (P31228 whole entry): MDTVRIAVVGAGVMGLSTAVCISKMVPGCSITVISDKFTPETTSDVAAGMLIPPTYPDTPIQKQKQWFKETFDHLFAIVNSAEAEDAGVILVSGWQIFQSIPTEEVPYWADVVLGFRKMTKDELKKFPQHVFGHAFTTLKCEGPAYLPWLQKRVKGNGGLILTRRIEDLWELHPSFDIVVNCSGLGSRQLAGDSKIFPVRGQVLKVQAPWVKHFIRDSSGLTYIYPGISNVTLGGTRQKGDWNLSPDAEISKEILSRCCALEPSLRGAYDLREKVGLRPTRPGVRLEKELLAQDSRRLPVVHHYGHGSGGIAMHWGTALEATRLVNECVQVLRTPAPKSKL

[23] = Ratio of drug level (0 to last) in brain to plasma in Swiss mouse at 10 mg/kg, po; type: ADME, organism-based; parameters: dose 10 mg/kg, route oral; conditions: brain and plasma, read-out: BPR
[24] = Cmax in Wistar rat brain at 10 mg/kg, po; type: ADME, organism-based; parameters: dose 10 mg/kg, route oral
[25] = Terminal half life in Swiss mouse brain at 10 mg/kg, po; type: ADME, organism-based; parameters: dose 10 mg/kg, route oral; conditions: read-out: beta t1/2 (converted)
Brain [26] = test: AUC (0 to last) in Wistar rat brain at 10 mg/kg, po; type: ADME, organism-based; parameters: dose 10 mg/kg, route oral, time 0 - last; conditions: in vivo
[27] = Volume of distribution in Swiss mouse plasma at 10 mg/kg, iv; type: ADME, organism-based; parameters: dose 10 mg/kg, route intravenous
[28] = Ratio of drug level (0 to last) in brain to plasma in Wistar rat at 30 mg/kg, po; type: ADME, organism-based; parameters: dose 30 mg/kg, route oral; conditions: brain and plasma, read-out: BPR
[29] = Terminal half life in Wistar rat brain at 30 mg/kg, po; type: ADME, organism-based; parameters: dose 30 mg/kg, route oral; conditions: read-out: beta t1/2 (converted)
[30] = Oral bioavailability (0 to last) in Wistar rat plasma at 30 mg/kg; type: ADME, organism-based
Brain [31] = test: AUC (0 to last) in Swiss mouse brain at 30 mg/kg, po; type: ADME, organism-based; parameters: time 0 - last, dose 30 mg/kg, route oral; conditions: in vivo
D-amino-acid oxidase [32] = target: T1, D-amino-acid oxidase; test: Binding affinity to human recombinant DAAO by kinetic study scintillation proximity assay
Target sequence in this assay (P14920 whole entry): as the sequence (P14920 whole entry, looked up) above

[33] = Tmax in Swiss mouse brain at 30 mg/kg, po; type: ADME, organism-based; parameters: dose 30 mg/kg, route oral
[34] = Volume of distribution in Wistar rat plasma at 10 mg/kg, iv; type: ADME, organism-based; parameters: dose 10 mg/kg, route intravenous
D-amino-acid oxidase [35] = target: T1, D-amino-acid oxidase; test: Binding affinity to human recombinant DAAO by isothermal titration calorimeter analysis
Target sequence in this assay (P14920 whole entry): as the sequence (P14920 whole entry, looked up) above

[36] = Oral bioavailability (0 to last) in Swiss mouse plasma at 30 mg/kg; type: ADME, organism-based
[37] = Cmax in Swiss mouse brain at 30 mg/kg, po; type: ADME, organism-based; parameters: dose 30 mg/kg, route oral
[38] = Cmax in Wistar rat brain at 30 mg/kg, po; type: ADME, organism-based; parameters: dose 30 mg/kg, route oral
[39] = Plasma clearance in Wistar rat plasma at 10 mg/kg, iv; type: ADME, organism-based; parameters: dose 10 mg/kg, route intravenous
[40] = Ratio of drug level (0 to last) in brain to plasma in Swiss mouse at 30 mg/kg, po; type: ADME, organism-based; parameters: dose 30 mg/kg, route oral; conditions: brain and plasma, read-out: BPR
[41] = Terminal half life in Swiss mouse brain at 30 mg/kg, po; type: ADME, organism-based; parameters: dose 30 mg/kg, route oral; conditions: read-out: beta t1/2 (converted)
Brain [42] = test: AUC (0 to last) in Wistar rat brain at 30 mg/kg, po; type: ADME, organism-based; parameters: time 0 - last, dose 30 mg/kg, route oral; conditions: in vivo
D-amino-acid oxidase [43] = target: T1, D-amino-acid oxidase; test: Inhibition of human recombinant DAAO expressed in Escherichia coli assessed as H2O2 production from D-serine degradation after 30 mins by fluorescence assay
Target sequence in this assay (P14920 whole entry): as the sequence (P14920 whole entry, looked up) above

[44] = Plasma clearance in Swiss mouse plasma at 10 mg/kg, iv; type: ADME, organism-based; parameters: dose 10 mg/kg, route intravenous
D-amino-acid oxidase [45] = target: T1, D-amino-acid oxidase; test: Inhibition of human DAAO
Target sequence in this assay (P14920 whole entry): as the sequence (P14920 whole entry, looked up) above

[46] = Tmax in Wistar rat brain at 30 mg/kg, po; type: ADME, organism-based; parameters: dose 30 mg/kg, route oral
D-amino-acid oxidase [47] = target: T1, D-amino-acid oxidase; test: Binding affinity to human recombinant DAAO by steady state study scintillation proximity assay
Target sequence in this assay (P14920 whole entry): as the sequence (P14920 whole entry, looked up) above

Structure (SMILES) | Kp [2] | logP [3] | Vd [4] | AUClast (Brain [5]) | solubility kinetic at 2 h [6] | clearance [7] | Tmax [8] | clearance [9] | bioavailability [11] | solubility kinetic at 2 h [12] | Vd [13] | half-life [14] | solubility thermodynamic at 24 h [15] | T1/2 (D-amino-acid oxidase [17]) | Tmax [19] | pKa [20] | bioavailability [21] | Cmax [22] | IC50 (D-aspartate oxidase) | Cmax [24] | further results
Oc1noc2cc(Cl)ccc12 | 0.04 | 2.68 | 0.2 L/kg | 139 ng·h/mL | 100 µM (≈ 17 µg/mL) | 5 mL/min/kg | 15 min | 10 mL/min/kg | 29% | > 100 µM | 0.3 L/kg | 120 min | 433 µM (≈ 73.4 µg/mL) | 10 min | 30 min | 4.07 | 28% | 228 ng/mL | > 10000 nM | 319 ng/mL | Papp A→B [1]: 75 ×10⁻⁶ cm/s; IC50 [10]: > 10000 nM; microsomal CLint [16]: 4.7 µL/min/mg; Papp A→B [18]: 77 ×10⁻⁶ cm/s; Kp [23]: 0.03; half-life [25]: 60 min; AUClast (Brain [26]): 340 ng·h/mL
O=c1[nH]c2cccc(Cl)c2cc1O |  | 2.57 | 0.3 L/kg |  | 17 µM (≈ 3.33 µg/mL) | 30 mL/min/kg | 15 min | 44 mL/min/kg | 0.65% | 55 µM (≈ 10.8 µg/mL) | 0.3 L/kg |  | 31 µM (≈ 6.06 µg/mL) | > 120 min |  | 7.6 | 1.4% | 11.7 ng/mL | > 10000 nM |  | microsomal CLint [16]: 308 µL/min/mg
Cc1cc(C(=O)O)n[nH]1 |  | 0.45 |  |  | 100 µM (≈ 12.6 µg/mL) |  |  |  |  | > 100 µM |  |  | > 460 µM |  |  | 3.59 |  |  | > 10000 nM |  | Vd [27]: 0.4 L/kg; Kp [28]: 0.04; half-life [29]: 180 min; bioavailability [30]: 97%; AUClast (Brain [31]): 831 ng·h/mL; Kd (D-amino-acid oxidase [32]): 900 nM; Tmax [33]: 30 min; Vd [34]: 3.5 L/kg; Kd (D-amino-acid oxidase [35]): 617 nM; bioavailability [36]: 33%; Cmax [37]: 359 ng/mL; Cmax [38]: 112 ng/mL; clearance [39]: 11 mL/min/kg; Kp [40]: 0.1; half-life [41]: 60 min; AUClast (Brain [42]): 631 ng·h/mL; IC50 (D-amino-acid oxidase [43]): 473 nM; clearance [44]: 10 mL/min/kg; IC50 (D-amino-acid oxidase [45]): 910 nM; Tmax [46]: 60 min
O=C(O)c1cc2sccc2[nH]1 | 0.05 | 2.11 | 0.4 L/kg | 302 ng·h/mL | 100 µM (≈ 16.7 µg/mL) | 9 mL/min/kg | 15 min | 21 mL/min/kg | 56% | > 100 µM | 2.1 L/kg | 120 min | > 460 µM | 10 min | 60 min | 3.88 | 100% | 336 ng/mL | > 10000 nM | 648 ng/mL | Papp A→B [1]: 6 ×10⁻⁶ cm/s; Kd (D-amino-acid oxidase [32]): 6 nM; Kd (D-amino-acid oxidase [47]): 33 nM; Kd (D-amino-acid oxidase [35]): 19 nM; IC50 (D-amino-acid oxidase [43]): 11.9 nM; Papp A→B [18]: 47 ×10⁻⁶ cm/s; IC50 (D-amino-acid oxidase [45]): 145 nM; Kp [23]: 0.06; half-life [25]: 60 min; AUClast (Brain [26]): 1940 ng·h/mL
O=C(O)c1cc2occc2[nH]1 | 0.08 | 1.56 | 0.8 L/kg | 371 ng·h/mL | 100 µM (≈ 15.1 µg/mL) | 4 mL/min/kg | 15 min | 15 mL/min/kg | 42% | > 100 µM | 0.4 L/kg | 120 min | 428 µM (≈ 64.7 µg/mL) | 10 min | 30 min | 4.09 | 52% | 487 ng/mL | > 10000 nM | 889 ng/mL | IC50 [10]: > 10000 nM; Kp [23]: 0.08; half-life [25]: 30 min; AUClast (Brain [26]): 1520 ng·h/mL
O=c1[nH]c2ccc(F)c(Cl)c2cc1O |  | 2.7 | 0.5 L/kg |  | 3 µM (≈ 0.641 µg/mL) | 28 mL/min/kg | 15 min | 45 mL/min/kg | 3% | 65 µM (≈ 13.9 µg/mL) | 0.3 L/kg |  | 71 µM (≈ 15.2 µg/mL) |  | 30 min | 7.33 | 2% | 12.1 ng/mL | > 10000 nM | 17.9 ng/mL | microsomal CLint [16]: 183 µL/min/mg
